From patent US9845330B2, “6-nitro-2,3-dihydroimidazo[2,1-b]oxazoles and a process for the preparation thereof” (priority 2013, dated 2017)
Values after ≈ are worked out from the molar mass of the structure shown.

Columns and labels:
[1] = test system: M. tuberculosis MDR (resistant to isoniazid and rifampicin); test: microbe, parasite or virus in culture; type: cell-based; details: Mycobacterium tuberculosis, 504 h, read-out: MIC M. tb MDR
[2] = test system: M. tuberculosis XDR (resistant to isoniazid, rifampicin, amikacin and moxifloxacin); test: microbe, parasite or virus in culture; type: cell-based; details: Mycobacterium tuberculosis, 504 h, read-out: MIC M. tb XDR

| Compound | MIC [1] [µg/mL] | MIC [2] [µg/mL] |
| --- | --- | --- |
| C[C@]1(COc2ccc(-n3cc(-c4ccccc4)nn3)cc2)Cn2cc([N+](=O)[O-])nc2O1 [IA1] | 4 (≈ 9.56 µM) | 4 (≈ 9.56 µM) |
| CCc1ccc(-c2cn(-c3ccc(OC[C@@]4(C)Cn5cc([N+](=O)[O-])nc5O4)cc3)nn2)cc1 [IA2, (R)-2-{4-[4-(4-ethylphenyl)-1H-1,2,3-triazol-1-yl]phenoxymethyl}-2,3-dihydro-2-methyl-6-nitroimidazo[2,1-b]oxazole] | 4 (≈ 8.96 µM) | 4 (≈ 8.96 µM) |
| C[C@]1(COc2ccc(-n3cc(-c4ccc(F)cc4)nn3)cc2)Cn2cc([N+](=O)[O-])nc2O1 [IA3, (R)-2-{4-[4-(4-fluorophenyl)-1H-1,2,3-triazol-1-yl]phenoxymethyl}-2,3-dihydro-2-methyl-6-nitroimidazo[2,1-b]oxazole] | 0.25 (≈ 0.573 µM) | 0.25 (≈ 0.573 µM) |
| C[C@]1(COc2ccc(-n3cc(-c4ccccc4F)nn3)cc2)Cn2cc([N+](=O)[O-])nc2O1 [IA4, (R)-2-{4-[4-(2-fluorophenyl)-1H-1,2,3-triazol-1-yl]phenoxymethyl}-2,3-dihydro-2-methyl-6-nitroimidazo[2,1-b]oxazole] | 2 (≈ 4.58 µM) | 2 (≈ 4.58 µM) |
| C[C@]1(COc2ccc(-n3cc(-c4ccc(OC(F)(F)F)cc4)nn3)cc2)Cn2cc([N+](=O)[O-])nc2O1 [IA5, (R)-2-{4-[4-(4-trifluoromethoxyphenyl)-1H-1,2,3-triazol-1-yl]phenoxymethyl}-2,3-dihydro-2-methyl-6-nitroimidazo[2,1-b]oxazole] | 0.5 (≈ 0.995 µM) | 0.5 (≈ 0.995 µM) |
| C[C@]1(COc2ccc(-n3cc(-c4ccccc4C(F)(F)F)nn3)cc2)Cn2cc([N+](=O)[O-])nc2O1 [IA6, (R)-2-{4-[4-(2-trifluoromethylphenyl)-1H-1,2,3-triazol-1-yl]phenoxymethyl}-2,3-dihydro-2-methyl-6-nitroimidazo[2,1-b]oxazole] | 1 (≈ 2.06 µM) | 1 (≈ 2.06 µM) |
| C[C@]1(COc2ccc(-n3cc(-c4ccc(F)cc4F)nn3)cc2)Cn2cc([N+](=O)[O-])nc2O1 [IA7, (R)-2-{4-[4-(2,4-difluorophenyl)-1H-1,2,3-triazol-1-yl]phenoxymethyl}-2,3-dihydro-2-methyl-6-nitroimidazo[2,1-b]oxazole] | 2 (≈ 4.4 µM) | 2 (≈ 4.4 µM) |
| Cc1ccc(-c2cn(-c3ccc(OC[C@@]4(C)Cn5cc([N+](=O)[O-])nc5O4)cc3)nn2)cc1 [IA8, (R)-2-{4-[4-(4-methylphenyl)-1H-1,2,3-triazol-1-yl]phenoxymethyl}-2,3-dihydro-2-methyl-6-nitroimidazo[2,1-b]oxazole] | 1 (≈ 2.31 µM) | 1 (≈ 2.31 µM) |
| CC(C)c1ccc(-c2cn(-c3ccc(OC[C@@]4(C)Cn5cc([N+](=O)[O-])nc5O4)cc3)nn2)cc1 [IA9, (R)-2-{4-[4-(4-isopropylphenyl)-1H-1,2,3-triazol-1-yl]phenoxymethyl}-2,3-dihydro-2-methyl-6-nitroimidazo[2,1-b]oxazole] | 1 (≈ 2.17 µM) | 1 (≈ 2.17 µM) |
| C[C@]1(COc2ccc(-n3cc(-c4cccc(F)c4)nn3)cc2)Cn2cc([N+](=O)[O-])nc2O1 [IA10, (R)-2-{4-[4-(3-fluorophenyl)-1H-1,2,3-triazol-1-yl]phenoxymethyl}-2,3-dihydro-2-methyl-6-nitroimidazo[2,1-b]oxazole] | 2 (≈ 4.58 µM) | 2 (≈ 4.58 µM) |
| COc1ccc(-c2cn(-c3ccc(OC[C@@]4(C)Cn5cc([N+](=O)[O-])nc5O4)cc3)nn2)cc1 [IA11, (R)-2-{4-[4-(4-methoxyphenyl)-1H-1,2,3-triazol-1-yl]phenoxymethyl}-2,3-dihydro-2-methyl-6-nitroimidazo[2,1-b]oxazole] | 0.25 (≈ 0.557 µM) | 0.25 (≈ 0.557 µM) |
| C[C@]1(COc2ccc(-n3cc(-c4cccc(OC(F)(F)F)c4)nn3)cc2)Cn2cc([N+](=O)[O-])nc2O1 [IA12, (R)-2-{4-[4-(3-trifluoromethoxyphenyl)-1H-1,2,3-triazol-1-yl]phenoxymethyl}-2,3-dihydro-2-methyl-6-nitroimidazo[2,1-b]oxazole] | 0.5 (≈ 0.995 µM) | 0.5 (≈ 0.995 µM) |
| C[C@]1(COc2ccc(-n3cc(-c4cccc(C(F)(F)F)c4)nn3)cc2)Cn2cc([N+](=O)[O-])nc2O1 [IA13, (R)-2-{4-[4-(3-trifluoromethylphenyl)-1H-1,2,3-triazol-1-yl]phenoxymethyl}-2,3-dihydro-2-methyl-6-nitroimidazo[2,1-b]oxazole] | 2 (≈ 4.11 µM) | 2 (≈ 4.11 µM) |
| C[C@]1(COc2ccc(-n3cc(-c4ccccn4)nn3)cc2)Cn2cc([N+](=O)[O-])nc2O1 [IA14] | 2 (≈ 4.77 µM) | 2 (≈ 4.77 µM) |
| CCCCCc1cn(-c2ccc(OC[C@@]3(C)Cn4cc([N+](=O)[O-])nc4O3)cc2)nn1 [IA15, (R)-2-{4-[4-pentyl-1H-1,2,3-triazol-1-yl]phenoxymethyl}-2,3-dihydro-2-methyl-6-nitroimidazo[2,1-b]oxazole] | 32 (≈ 77.6 µM) | 32 (≈ 77.6 µM) |
| CCCCCCCc1cn(-c2ccc(OC[C@@]3(C)Cn4cc([N+](=O)[O-])nc4O3)cc2)nn1 [IA16, (R)-2-{4-[4-heptyl-1H-1,2,3-triazol-1-yl]phenoxymethyl}-2,3-dihydro-2-methyl-6-nitroimidazo[2,1-b]oxazole] | 4 (≈ 9.08 µM) | 4 (≈ 9.08 µM) |
| C[C@]1(COc2cccc(-n3cc(-c4ccc(F)cc4)nn3)c2)Cn2cc([N+](=O)[O-])nc2O1 [IA17, (R)-2-{3-[4-(4-fluorophenyl)-1H-1,2,3-triazol-1-yl]phenoxymethyl}-2,3-dihydro-2-methyl-6-nitroimidazo[2,1-b]oxazole] | 2 (≈ 4.58 µM) | 2 (≈ 4.58 µM) |
| C[C@]1(COc2cccc(-n3cc(-c4ccc(C(F)(F)F)cc4)nn3)c2)Cn2cc([N+](=O)[O-])nc2O1 [IA18, (R)-2-{3-[4-(4-trifluoromethylphenyl)-1H-1,2,3-triazol-1-yl]phenoxymethyl}-2,3-dihydro-2-methyl-6-nitroimidazo[2,1-b]oxazole] | 2 (≈ 4.11 µM) | 2 (≈ 4.11 µM) |
| C[C@]1(COc2cccc(-n3cc(-c4ccc(OC(F)(F)F)cc4)nn3)c2)Cn2cc([N+](=O)[O-])nc2O1 [IA19, (R)-2-{3-[4-(4-trifluoromethoxyphenyl)-1H-1,2,3-triazol-1-yl]phenoxymethyl}-2,3-dihydro-2-methyl-6-nitroimidazo[2,1-b]oxazole] | 4 (≈ 7.96 µM) | 4 (≈ 7.96 µM) |

| Compound | MIC [1] [µg/mL] | MIC [2] [µg/mL] |
| --- | --- | --- |
| C[C@]1(COc2cccc(-n3cc(-c4ccc(F)cc4F)nn3)c2)Cn2cc([N+](=O)[O-])nc2O1 [IA20, (R)-2-{3-[4-(2,4-difluorophenyl)-1H-1,2,3-triazol-1-yl]phenoxymethyl}-2,3-dihydro-2-methyl-6-nitroimidazo[2,1-b]oxazole] | 4 (≈ 8.8 µM) | 4 (≈ 8.8 µM) |
| C[C@]1(COc2ccccc2-n2cc(-c3ccc(F)cc3)nn2)Cn2cc([N+](=O)[O-])nc2O1 [IA21, (R)-2-{2-[4-(4-fluorophenyl)-1H-1,2,3-triazol-1-yl]phenoxymethyl}-2,3-dihydro-2-methyl-6-nitroimidazo[2,1-b]oxazole] | 1 (≈ 2.29 µM) | 1 (≈ 2.29 µM) |
| C[C@]1(COc2ccccc2-n2cc(-c3ccc(C(F)(F)F)cc3)nn2)Cn2cc([N+](=O)[O-])nc2O1 [IA22, (R)-2-{2-[4-(4-trifluoromethylphenyl)-1H-1,2,3-triazol-1-yl]phenoxymethyl}-2,3-dihydro-2-methyl-6-nitroimidazo[2,1-b]oxazole] | 4 (≈ 8.22 µM) | 4 (≈ 8.22 µM) |
| C[C@]1(COc2ccccc2-n2cc(-c3ccc(OC(F)(F)F)cc3)nn2)Cn2cc([N+](=O)[O-])nc2O1 [IA23, (R)-2-{2-[4-(4-trifluoromethoxyphenyl)-1H-1,2,3-triazol-1-yl]phenoxymethyl}-2,3-dihydro-2-methyl-6-nitroimidazo[2,1-b]oxazole] | 4 (≈ 7.96 µM) | 4 (≈ 7.96 µM) |
| C[C@]1(COc2ccccc2-n2cc(-c3ccc(F)cc3F)nn2)Cn2cc([N+](=O)[O-])nc2O1 [IA24, (R)-2-{2-[4-(2,4-difluorophenyl)-1H-1,2,3-triazol-1-yl]phenoxymethyl}-2,3-dihydro-2-methyl-6-nitroimidazo[2,1-b]oxazole] | 1 (≈ 2.2 µM) | 1 (≈ 2.2 µM) |
| C[C@]1(COc2ccc(-n3cc(COc4ccc(OC(F)(F)F)cc4)nn3)cc2)Cn2cc([N+](=O)[O-])nc2O1 [IA25] | 0.12 (≈ 0.225 µM) | 0.12 (≈ 0.225 µM) |
| C[C@]1(COc2ccc(-n3cc(COc4ccc(F)cc4)nn3)cc2)Cn2cc([N+](=O)[O-])nc2O1 [IA26] | 0.5 (≈ 1.07 µM) | 0.5 (≈ 1.07 µM) |
| C[C@]1(COc2ccc(-n3cc(COc4ccc(C(F)(F)F)cc4)nn3)cc2)Cn2cc([N+](=O)[O-])nc2O1 [IA27] | 0.25 (≈ 0.484 µM) | 0.25 (≈ 0.484 µM) |
| C[C@]1(COc2ccc(-n3cc(COc4ccccc4F)nn3)cc2)Cn2cc([N+](=O)[O-])nc2O1 [IA28] | 0.12 (≈ 0.257 µM) | 0.12 (≈ 0.257 µM) |
| Cc1ccc(OCc2cn(-c3ccc(OC[C@@]4(C)Cn5cc([N+](=O)[O-])nc5O4)cc3)nn2)cc1 [IA29] | 32 (≈ 69.2 µM) | 32 (≈ 69.2 µM) |
| CC(C)c1ccc(OCc2cn(-c3ccc(OC[C@@]4(C)Cn5cc([N+](=O)[O-])nc5O4)cc3)nn2)cc1 [IA30] | 32 (≈ 65.2 µM) | 32 (≈ 65.2 µM) |
| CCc1ccc(OCc2cn(-c3ccc(OC[C@@]4(C)Cn5cc([N+](=O)[O-])nc5O4)cc3)nn2)cc1 [IA31] | 0.25 (≈ 0.525 µM) | 0.25 (≈ 0.525 µM) |
| CCC(C)c1ccc(OCc2cn(-c3ccc(OC[C@@]4(C)Cn5cc([N+](=O)[O-])nc5O4)cc3)nn2)cc1 (some centres unmarked) [IA32] | 0.12 (≈ 0.238 µM) | 0.12 (≈ 0.238 µM) |
| C[C@]1(COc2cccc(-n3cc(COc4ccc(OC(F)(F)F)cc4)nn3)c2)Cn2cc([N+](=O)[O-])nc2O1 [IA33] | 0.12 (≈ 0.225 µM) | 0.12 (≈ 0.225 µM) |
| C[C@]1(COc2cccc(-n3cc(COc4ccc(F)cc4)nn3)c2)Cn2cc([N+](=O)[O-])nc2O1 [IA34] | 0.12 (≈ 0.257 µM) | 0.12 (≈ 0.257 µM) |
| C[C@]1(COc2cccc(-n3cc(COc4ccc(C(F)(F)F)cc4)nn3)c2)Cn2cc([N+](=O)[O-])nc2O1 [IA35] | 2 (≈ 3.87 µM) | 2 (≈ 3.87 µM) |
| C[C@]1(COc2cccc(-n3cc(COc4ccccc4F)nn3)c2)Cn2cc([N+](=O)[O-])nc2O1 [IA36] | 2 (≈ 4.29 µM) | 2 (≈ 4.29 µM) |
| Cc1ccc(OCc2cn(-c3cccc(OC[C@@]4(C)Cn5cc([N+](=O)[O-])nc5O4)c3)nn2)cc1 [IA37] | 4 (≈ 8.65 µM) | 4 (≈ 8.65 µM) |
